Laboratory results taken from patent publication US10633389B2, “CARM1 inhibitors and uses thereof” (Epizyme, Inc., priority 2013, dated 2020).

Test system: asymmetric di-methyl PABP1 in RKO cells
Experiment: RKO methylation assay, In Cell Western (ICW) for asymmetric di-methyl PABP1
Assay type: cell-based
Details: Homo sapiens, RKO, Cellular potencies, ICW PABP1me2a
Source text: RKO adherent cells were purchased from ATCC (American Type Culture Collection), Manassas, Va., USA. DMEM/Glutamax medium, penicillin-streptomycin, heat inactivated fetal bovine serum, 0.05% trypsin and D-PBS were purchased from Life Technologies, Grand Island, N.Y., USA. Odyssey blocking buffer, 800 CW goat anti-rabbit IgG (H+L) antibody, and Licor Odyssey infrared scanner were purchased from Licor Biosciences, Lincoln, Nebr., USA. Asymmetric di-methyl PABP1 antibody was purchased from Cell Signaling Technology, Danvers, Mass., USA. Methanol was purchased from VWR, Franklin, Mass., USA. 10% Tween 20 was purchased from KPL, Inc., Gaithersburg, Md., USA. Paraformaldehyde (PFA) was purchased from EM Sciences. DRAQ5 was purchased from Biostatus Limited, Leicestershire, UK.
RKO adherent cells were maintained in growth medium (DMEM/Glutamax medium supplemented with 10% v/v heat inactivated fetal bovine serum and 100 units/mL penicillin-streptomycin) and cultured at 37° C. under 5% CO2.
Cell treatment, In Cell Western (ICW) for detection of asymmetric di-methyl PABP1 and DNA content: RKO cells were seeded in assay medium at a concentration of 30,000 cells per mL to a poly-D-lysine coated 384 well culture plate (BD Biosciences 356697) with 50 VL per well. Compound (100 nL) from a 96-well source plate was added directly to 384 well cell plate. Plates were incubated at 37° C., 5% CO2 for 48 hours. After two days of incubation, plates were brought to room temperature outside of the incubator for ten minutes and blotted on paper towels to remove cell media. Cells were fixed for 20 minutes at room temperature by adding 50 ul of 8% PFA followed by aspiration of supernatant with the Biotek EL406 plate washer. Cells were then permeabilized by addition of 50 μL of ice cold 100% methanol directly to each well and incubated for 30 min at room temperature. After 30 min, plates were transferred to a Biotek EL406 plate washer and washed 2 times with 100 μL per well of wash buffer (1×PBS). Next 60 μL per well of Odyssey blocking buffer (Odyssey Buffer with 0.1% Tween 20 (v/v)) were added to each plate and incubated 1 hour at room temperature. Blocking buffer was removed and 20 μL per well of primary antibody was added (asymmetric-methyl PABP1) diluted 1:400 in Odyssey buffer with 0.1% Tween 20 (v/v)) and plates were incubated overnight (16 hours) at 4° C. Plates were washed 5 times with 100 μL per well of wash buffer. Next 20 μL per well of secondary antibody was added (1:800 800 CW goat anti-rabbit IgG (H+L) antibody, 1:2000 DRAQ5 in Odyssey buffer with 0.1% Tween 20 (v/v)) and incubated for 1 hour at room temperature. The plates were washed 5 times with 100 μL per well wash buffer then 2 times with 100 μL per well of water. Plates were allowed to dry at room temperature then imaged on the Licor Odyssey machine which measures integrated intensity at 700 nm and 800 nm wavelengths. Both 700 and 800 channels were scanned.
First, the ratio for each well was determined by:
Each plate included fourteen control wells of DMSO only treatment (minimum inhibition) as well as fourteen control wells for maximum inhibition treated with 20 μM of a reference compound. The average of the ratio values for each control type was calculated and used to determine the percent […] for each test well in the plate. Reference compound was serially diluted three-fold in DMSO for a total of nine test concentrations, beginning at 20 μM.
Percent inhibition was determined and IC50 curves were generated using triplicate wells per concentration of compound. […]

| SMILES | IC50 [µM] |
| --- | --- |
| CNCC(O)COc1cccc(-c2nc(NC3CNC3)c(C)c(-c3c(C)noc3C)n2)c1 (centres unmarked) [Example 1-3] | ≥ 20 |
| CNCC(O)COc1cccc(-c2nc(-c3c(C)noc3C)cc(-c3c(C)noc3C)n2)c1 (centres unmarked) [Example 3-1a] | 10 to 20 |
| CNCC(O)COc1cc(Cl)cc(-c2nc(-c3c(C)noc3C)cc(-c3c(C)noc3C)n2)c1 (centres unmarked) [Example 4-1a] | 10 to 20 |
| CNCC(O)COc1ccc(Cl)c(-c2nc(N[C@H]3CCN(C(=O)OC)C[C@H]3F)c(C)c(-c3c(C)noc3C)n2)c1 (some centres unmarked) [Example 4-3] | < 5 |
| CNCC(O)COc1cccc(-c2nc(NC3(CO)CC3)c(C)c(-c3c(C)noc3C)n2)c1 (centres unmarked) [Example 5-3] | 5 to 10 |
| CNCC(O)COc1cccc(-c2nc(NC3CCOCC3)c(C)c(-c3c(C)noc3C)n2)c1 (centres unmarked) [Example 6-1a] | < 5 |
| CNCC(O)COc1ccc(Cl)c(-c2nc(NC[C@H]3CCCO3)c(C)c(-c3c(C)noc3C)n2)c1 (some centres unmarked) [Example 6-3] | < 5 |
| CNCC(O)COc1cc(Cl)cc(-c2nc(NC3CCOCC3)cc(-c3c(C)noc3C)n2)c1 (centres unmarked) [Example 7-1a] | 10 to 20 |
| CNCC(O)COc1ccc(Cl)c(-c2nc(NC[C@@H]3CCCO3)c(C)c(-c3c(C)noc3C)n2)c1 (some centres unmarked) [Example 7-3] | < 5 |
| CNCC(O)COc1cccc(-c2nc(NC3(C(F)(F)F)CC3)c(C)c(-c3c(C)noc3C)n2)c1 (centres unmarked) [Example 8-3] | < 5 |
| CNCC(O)COc1cc(Cl)cc(-c2nc(N[C@@H]3CCOC3)cc(-c3c(C)noc3C)n2)c1 (some centres unmarked) [Example 10-1a] | 10 to 20 |
| CNCC(O)COc1cccc(-c2nc(N[C@H]3CCC[C@@H](O)C3)c(C)c(-c3c(C)noc3C)n2)c1 (some centres unmarked) [Example 10-3] | < 5 |
| CNCC(O)COc1cccc(-c2nc(N[C@@H]3CCOC3)c(C)c(N3CC4CN(S(C)(=O)=O)CC4C3)n2)c1 (some centres unmarked) [Example 11-3] | 5 to 10 |
| CNCC(O)COc1cccc(-c2nc(N[C@H]3CCOC3)cc(-c3c(C)noc3C)n2)c1 (some centres unmarked) [Example 13-1a] | 5 to 10 |
| CNCC(O)COc1cccc(-c2nc(-c3c(C)noc3C)c(C)c(N3CC(NC(=O)N(C)C)C3)n2)c1 (centres unmarked) [Example 13-3] | < 5 |
| Cc1noc(C)c1-c1cc(NC2CCOCC2)nc(-c2cccc(OC[C@@H](O)CN)c2)n1 [Example 15-1a] | 10 to 20 |
| CNCC(O)COc1cccc(-c2nc(-c3c(C)noc3C)c(C)c(N3CCC[C@H](N(C)C(=O)OC)C3)n2)c1 (some centres unmarked) [Example 15-3] | 5 to 10 |
| CNCC(O)COc1cccc(-c2nc(-c3c(C)noc3C)c(C)c(N3CCN(C(=O)OC)C(C(F)F)C3)n2)c1 (centres unmarked) [Example 17-3] | < 5 |
| CCN1CCN(c2cc(-c3c(C)noc3C)nc(-c3cccc(OCC(O)CNC)c3)n2)CC1 (centres unmarked) [Example 20-1a] | 5 to 10 |
| CNCC(O)COc1cccc(-c2nc(-c3c(C)noc3C)c(C)c(N(C)[C@H]3C[C@@](C)(OC)C3)n2)c1 (some centres unmarked) [Example 20-3] | < 5 |
| CNCC(O)COc1cc(Cl)cc(-c2nc(NC3CCN(C4CC4)CC3)c(C)c(-c3c(C)noc3C)n2)c1 (centres unmarked) [Example 22-3] | < 5 |
| CCOC(=O)N1CCOC[C@H]1CNc1nc(-c2cc(OC[C@@H](O)CNC)ccc2Cl)nc(-c2c(C)noc2C)c1C [Example 24-3] | < 5 |
| CNCC(O)COc1cccc(-c2nc(N[C@H]3CCOC3)c(C)c(N3CCOCC3)n2)c1 (some centres unmarked) [Example 26-1] | 10 to 20 |
| CNCC(O)COc1cccc(-c2nc(NC)cc(-c3c(C)noc3C)n2)c1 (centres unmarked) [Example 27-1a] | 10 to 20 |
| CCOC(=O)N1CCCCC1CNc1nc(-c2cc(OC[C@@H](O)CNC)ccc2Cl)nc(-c2c(C)noc2C)c1C (some centres unmarked) [Example 27-3] | < 5 |
| CCOC(=O)N1CCCCC1CNc1nc(-c2cc(OC[C@H](O)CNC)ccc2Cl)nc(-c2c(C)noc2C)c1C (some centres unmarked) [Example 28-3] | < 5 |
| CNCC(O)COc1cccc(-c2nc(NC3CCOC3)cc(-c3c(C)noc3C)n2)c1 (centres unmarked) [Example 31-1a] | 5 to 10 |
| CNCC(O)COc1ccc(Cl)c(-c2nc(NCC3CCCCO3)c(C)c(-c3c(C)noc3C)n2)c1 (centres unmarked) [Example 31-3] | < 5 |

Next, values leading:

| IC50 [µM] | SMILES |
| --- | --- |
| < 5 | CNCC(O)COc1cccc(-c2nc(-c3c(C)noc3C)cc(N(C)C3CCOCC3)n2)c1 (centres unmarked) [Example 1-1a] |
| < 5 | CNCC(O)COc1ccc(Cl)c(-c2nc(NC[C@H]3COCCN3C3COC3)c(C)c(-c3c(C)noc3C)n2)c1 (some centres unmarked) [Example 2-3] |
| 5 to 10 | CNCC(O)COc1cccc(-c2nc(N[C@@H]3CCOC3)c(C)c(N3CCOCC3)n2)c1 (some centres unmarked) [Example 3-1] |
| < 5 | CNCC(O)COc1cccc(-c2nc(NC3CC(F)C3)c(C)c(-c3c(C)noc3C)n2)c1 (centres unmarked) [Example 3-3] |
| 10 to 20 | CNCC(O)COc1cccc(-c2nc(-c3c(C)noc3C)cc(N(C)CCC#N)n2)c1 (centres unmarked) [Example 5-1a] |
| 10 to 20 | CNCC(O)COc1cccc(-c2nc(-c3cncnc3)cc(-c3c(C)noc3C)n2)c1 (centres unmarked) [Example 8-1a] |
| 5 to 10 | CNCC(O)COc1cc(Cl)cc(-c2nc(Nc3cncnc3)cc(-c3c(C)noc3C)n2)c1 (centres unmarked) [Example 9-1a] |
| < 5 | CNCC(O)COc1ccc(Cl)c(-c2nc(NCC3CCOCC3)c(C)c(-c3c(C)noc3C)n2)c1 (centres unmarked) [Example 9-3] |
| 5 to 10 | CNCC(O)COc1cccc(-c2nc(N[C@@H]3CCOC3)cc(-c3c(C)noc3C)n2)c1 (some centres unmarked) [Example 11-1a] |
| 10 to 20 | CNCC(O)COc1cc(Cl)cc(-c2nc(N[C@H]3CCOC3)cc(-c3c(C)noc3C)n2)c1 (some centres unmarked) [Example 12-1a] |
| < 5 | CNCC(O)COc1cccc(-c2nc(-c3c(C)noc3C)c(C)c(N3CC(NC(=O)OC)C3)n2)c1 (centres unmarked) [Example 12-3] |
| < 5 | CCC(=O)NC1CN(c2nc(-c3cccc(OCC(O)CNC)c3)nc(-c3c(C)noc3C)c2C)C1 (centres unmarked) [Example 14-3] |
| 5 to 10 | Cc1noc(C)c1-c1cc(NC2CCOCC2)nc(-c2cccc(OC[C@H](O)CN)c2)n1 [Example 16-1a] |
| < 5 | CCS(=O)(=O)N1CC2(CN(c3nc(-c4cccc(OCC(O)CNC)c4)nc(-c4c(C)noc4C)c3C)C2)C1 (centres unmarked) [Example 16-3] |
| < 5 | CNC[C@H](O)COc1cccc(-c2nc(NC3CCOCC3)cc(-c3c(C)noc3C)n2)c1 [Example 17-1a] |
| < 5 | CNC[C@@H](O)COc1cccc(-c2nc(NC3CCOCC3)cc(-c3c(C)noc3C)n2)c1 [Example 18-1a] |
| 10 to 20 | CNCC(O)COc1cccc(-c2nc(Nc3nccn3C)c(C)c(-c3c(C)noc3C)n2)c1 (centres unmarked) [Example 18-3] |
| 10 to 20 | CNCC(O)COc1cccc(-c2nc(-c3c(C)noc3C)cc(N3CCN(C)CC3)n2)c1 (centres unmarked) [Example 19-1a] |
| < 5 | CNCC(O)COc1cccc(-c2nc(N[C@H]3C[C@@](C)(OC)C3)c(C)c(-c3c(C)noc3C)n2)c1 (some centres unmarked) [Example 19-3] |
| 5 to 10 | CNCC(O)COc1cccc(-c2nc(Nc3cncnc3)cc(-c3c(C)noc3C)n2)c1 (centres unmarked) [Example 21-1a] |
| < 5 | CNCC(O)COc1cc(Cl)cc(-c2nc(NC3CCN(CC(F)F)CC3)c(C)c(-c3c(C)noc3C)n2)c1 (centres unmarked) [Example 21-3] |
| < 5 | CCOC(=O)N1CCOC[C@H]1CNc1nc(-c2cc(OC[C@H](O)CNC)ccc2Cl)nc(-c2c(C)noc2C)c1C [Example 25-3] |
| < 5 | CNC[C@H](O)COc1ccc(F)c(-c2nc(NC3CCN(C(=O)OC)CC3)c(C)c(-c3c(C)noc3C)n2)c1 [Example 26-3] |
| < 5 | CCOC(=O)N1CCN(c2cc(-c3c(C)noc3C)nc(-c3cccc(OCC(O)CNC)c3)n2)CC1 (centres unmarked) [Example 28-1a] |
| 10 to 20 | CNCC(O)COc1cccc(-c2nc(-c3c(C)noc3C)cc(N3CCNC(C(=O)O)C3)n2)c1 (centres unmarked) [Example 29-1a] |
| < 5 | CNCC(O)COc1ccc(Cl)c(-c2nc(NC3CCOCC3)c(C)c(-c3c(C)noc3C)n2)c1 (centres unmarked) [Example 29-3] |
| < 5 | CNCC(O)COc1cccc(-c2nc(-c3c(C)noc3C)cc(N3CCN(C4CC4)CC3)n2)c1 (centres unmarked) [Example 30-1a] |
| < 5 | CNCC(O)COc1ccc(Cl)c(-c2nc(NCC3CCOC3)c(C)c(-c3c(C)noc3C)n2)c1 (centres unmarked) [Example 30-3] |
